Results: patent US10301299B2, “Glycosidase inhibitors” (Merck Patent GmbH, priority 2013, dated 2019)

Tests used:
His-Tagged hOGA = target: T1, His-Tagged hOGA (Homo sapiens, UniProt O60502); assay: Human O-GlcNAcase enzyme inhibition assay; type: biochemical; conditions: 20 nM His-Tagged hOGA, 10 μM FL-GlcNAc, pH 6.5, 60 min; read-out: hOGA enzyme inhibition (IC50)
T1 sequence (O60502 1-916): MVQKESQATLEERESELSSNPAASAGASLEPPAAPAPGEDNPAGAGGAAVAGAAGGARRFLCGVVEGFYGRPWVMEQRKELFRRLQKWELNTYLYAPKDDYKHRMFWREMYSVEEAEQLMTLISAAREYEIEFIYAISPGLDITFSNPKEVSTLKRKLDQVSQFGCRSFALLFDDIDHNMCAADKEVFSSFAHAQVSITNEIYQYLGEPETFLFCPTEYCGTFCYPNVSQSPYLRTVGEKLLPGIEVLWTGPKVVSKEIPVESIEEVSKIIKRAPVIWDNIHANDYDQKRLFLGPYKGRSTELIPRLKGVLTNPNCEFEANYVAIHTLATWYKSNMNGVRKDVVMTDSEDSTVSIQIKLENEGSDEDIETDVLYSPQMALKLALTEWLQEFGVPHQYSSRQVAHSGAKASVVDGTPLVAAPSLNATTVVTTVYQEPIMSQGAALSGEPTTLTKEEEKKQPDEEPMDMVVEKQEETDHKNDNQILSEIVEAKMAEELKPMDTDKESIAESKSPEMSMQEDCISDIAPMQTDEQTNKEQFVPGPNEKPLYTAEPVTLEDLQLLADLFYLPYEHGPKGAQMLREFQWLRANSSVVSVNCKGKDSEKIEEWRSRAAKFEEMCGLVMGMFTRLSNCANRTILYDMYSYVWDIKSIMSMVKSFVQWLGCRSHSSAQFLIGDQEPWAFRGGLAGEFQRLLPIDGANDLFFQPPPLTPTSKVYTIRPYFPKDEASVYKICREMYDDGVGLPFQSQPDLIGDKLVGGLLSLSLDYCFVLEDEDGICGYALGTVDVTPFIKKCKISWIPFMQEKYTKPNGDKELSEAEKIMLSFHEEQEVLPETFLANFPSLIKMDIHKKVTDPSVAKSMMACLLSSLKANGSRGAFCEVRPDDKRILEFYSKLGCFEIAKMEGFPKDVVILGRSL
Protocol: The following reaction components were added to a final volume of 10 μL in Mcllvaine's Buffer (pH 6.5): 20 nM His-Tagged hOGA and 10 μM Fluorescein mono-beta-D-(2-deoxy-2-N-acetyl) glucopyranoside (FL-GlcNAc; Marker Gene Technologies Inc, Part # M1485). […] The amount of fluorescence measured was plotted against the concentration of inhibitor to produce a sigmoidal dose response curve, from which an IC50 was calculated.

[1] = system: B35 rat neuroblastoma cells; assay: Cellular O-GlcNAcylation assay (tau O-GlcNAc S400, ICC); type: cell-based; conditions: Neuroblastoma cell, 16 h, tau O-GlcNAcylated at serine 400
Protocol: The following day cells were treated with appropriate concentration of a solution of inhibitor for 16 h at 37° C. in 5% CO2. Cells were fixed in 100 μl 4% paraformaldehyde for 15 min at room temperature, followed by three washes in PBS buffer. The cells were then permeabilized with 0.1% Triton X-100 for 60 min at room temperature. After three washes in PBS the cells were blocked with 10% goat serum containing 1% BSA in PBS buffer for two hours at room temperature. The cells were then incubated with a monoclonal rabbit antibody specific for tau O-GlcNAcylated at serine 400 (Epitomics) at a 1:1000 dilution overnight at 4° C. […] To calculate an EC50 the total peak intensity was plotted against the concentration of inhibitor to produce a sigmoidal dose response curve.

Compound	IC50 (His-Tagged hOGA)	EC50 [1]
CC(=O)Nc1ncc(CN2CCC(F)(c3ccccc3)CC2)s1 [Compound 41, N-[5-(4-fluoro-4-phenyl-piperidin-1-ylmethyl)-thiazol-2-yl]-acetamide]	1 to 10 µM	1 to 10 µM
COC(=O)Nc1ncc(CN2CCC(c3ccccc3)CC2)s1 [Compound 2, [5-(4-Phenyl-piperidin-1-ylmethyl)-thiazol-2-yl]-carbamic acid methyl ester]	1 to 10 µM	> 10 µM
CC(=O)Nc1ncc(CN2CC(c3ccccc3)C2)s1 [Compound 22, N-[5-(3-phenyl-azetidin-1-ylmethyl)-thiazol-2-yl]-acetamide]	0.2 to 1 µM	1 to 10 µM
CC(=O)Nc1ncc(CN2CCC(c3ccccc3C)CC2)s1 [Compound 43, N-(5-((4-(o-tolyl)piperidin-1-yl)methyl)thiazol-2-yl)acetamide]	1 to 10 µM	0.2 to 1 µM
CC(=O)Nc1ncc(CN2CCCCC2)s1 [Compound 25, N-(5-piperidin-1-ylmethyl-thiazol-2-yl)-acetamide]	1 to 10 µM	0.2 to 1 µM
CC(=O)Nc1ncc(CN2CCC(c3ccc(C#N)cc3)CC2)s1 [Compound 36, N-(5-((4-(4-cyanophenyl)piperidin-1-yl)methyl)thiazol-2-yl)acetamide]	0.2 to 1 µM	0.2 to 1 µM
CC(=O)Nc1ncc(CN2CCN(c3ccccc3)CC2)s1 [Compound 19, N-[5-(4-phenyl-piperazin-1-ylmethyl)-thiazol-2-yl]-acetamide]	0.2 to 1 µM	1 to 10 µM
CC(=O)Nc1ncc(CN2CCC(c3ccccc3O)CC2)s1 [Compound 37, N-(5-((4-(2-hydroxyphenyl)piperidin-1-yl)methyl)thiazol-2-yl)acetamide]	0.2 to 1 µM	< 0.2 µM
CC(=O)Nc1ncc(CN2CCC(c3cccc(O)c3)CC2)s1 [Compound 39, N-(5-((4-(3-hydroxyphenyl)piperidin-1-yl)methyl)thiazol-2-yl)acetamide]	0.2 to 1 µM	0.2 to 1 µM

Next, values leading:

IC50 (His-Tagged hOGA)	EC50 [1]	Compound
0.2 to 1 µM	0.2 to 1 µM	COc1ccccc1C1CCN(Cc2cnc(NC(C)=O)s2)CC1 [Compound 33, N-(5-((4-(2-methoxyphenyl)piperidin-1-yl)methyl)thiazol-2-yl)acetamide]
0.2 to 1 µM	0.2 to 1 µM	CC(=O)Nc1ncc(CN2CCC(c3ccccc3F)CC2)s1 [Compound 30, N-(5-((4-(2-fluorophenyl)piperidin-1-yl)methyl)thiazol-2-yl)acetamide]
0.2 to 1 µM	1 to 10 µM	CC(=O)Nc1ncc(CN2CCC(c3ccc(C(=O)O)cc3)CC2)s1 [Compound 45, 4-(1-((2-acetamidothiazol-5-yl)methyl)piperidin-4-yl)benzoic acid]
< 0.2 µM	0.2 to 1 µM	CC(=O)Nc1ncc(CN2CCC(c3ccccc3)CC2)s1 [Compound 1, N-(5-((4-phenylpiperidin-1-yl)methyl)thiazol-2-yl)acetamide]
< 0.2 µM	1 to 10 µM	CC(=O)Nc1ncc(CN2CCCC(c3ccccc3)C2)s1 (stereo not drawn) [Compound 29, N-(5-((3-phenylpiperidin-1-yl)methyl)thiazol-2-yl)acetamide]
< 0.2 µM	1 to 10 µM	COc1ccc(C2CCN(Cc3cnc(NC(C)=O)s3)CC2)cc1 [Compound 16, N-(5-((4-(4-methoxyphenyl)piperidin-1-yl)methyl)thiazol-2-yl)acetamide]
< 0.2 µM	0.2 to 1 µM	CC(=O)Nc1ncc(CN2CCC(c3ccc(O)cc3)CC2)s1 [Compound 38, N-(5-((4-(4-hydroxyphenyl)piperidin-1-yl)methyl)thiazol-2-yl)acetamide]
< 0.2 µM	1 to 10 µM	CC(=O)Nc1ncc(CN2CCC(C(C)C)CC2)s1 [Compound 26, N-[5-(4-isopropylpiperidin-1-ylmethyl)thiazol-2-yl]-acetamide]
< 0.2 µM	< 0.2 µM	CC(=O)Nc1ncc(CN2CCC(C3CCCCC3)CC2)s1 [Compound 27, N-(5-((4-cyclohexylpiperidin-1-yl)methyl)thiazol-2-yl)acetamide]
